Measurements taken from PMC12775434, “Ultra-large virtual screening unveils potent agonists of the neuromodulatory orphan receptor GPR139” (Nature Communications, 2025).
Several values for one entry are separate records, joined by “and”; a condition that tells them apart may be missing. Equal values may be shown once. Read-outs that look alike come from different tables or passages of the source.

Target: T1, GPR139 (Homo sapiens, UniProt Q6DWJ6)
T1 sequence (Q6DWJ6 1-353): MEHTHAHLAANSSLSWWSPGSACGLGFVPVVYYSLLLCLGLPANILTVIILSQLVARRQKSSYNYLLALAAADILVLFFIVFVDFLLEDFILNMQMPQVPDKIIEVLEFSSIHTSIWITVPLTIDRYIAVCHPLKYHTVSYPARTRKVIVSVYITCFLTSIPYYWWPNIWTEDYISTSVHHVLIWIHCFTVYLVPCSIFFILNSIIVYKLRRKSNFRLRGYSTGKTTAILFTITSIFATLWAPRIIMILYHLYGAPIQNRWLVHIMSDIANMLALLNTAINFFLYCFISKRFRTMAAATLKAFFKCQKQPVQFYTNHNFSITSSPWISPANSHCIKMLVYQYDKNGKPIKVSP
Test: Inositol monophosphate (IP1) accumulation assay, GPR139-CHOk1
Format: cell-based
Details: for EC50: read-out: pEC50 IP1 (converted)
Description: Primary screening and pharmacological characterization of compounds were performed using a CHO-K1 cell line that stably expresses human GPR139 (GPR139-CHOk1). The GPR139-CHOk1 cell line was kindly provided by H. Lundbeck A/S, Denmark[24]. GPR139-CHOk1 cells were grown in Ham’s F-12 Kaighn’s Modification Medium (ThermoFisher #21127030) supplemented with 10% dialyzed fetal bovine serum (US origin, ThermoFisher #26400044), 100 units/mL Penicillin-Streptomycin (ThermoFisher #15140122), and 1 mg/mL Geneticin (ThermoFisher #11811031). […] M1R-CHOk1 cells were purchased from The Missouri S&T cDNA Resource Center (#CEM100TN00). M1R-CHOk1 cells were grown in Ham’s F12 Medium (ThermoFisher #21765029) supplemented with 10% fetal bovine serum (Brazilian origin, ThermoFisher #10270106), 100 units/mL Penicillin-Streptomycin, and 0.25 mg/mL Geneticin. HEK293A cells transiently transfected with GPR139 were used for additional pharmacological assessment of signaling pathways activated by GPR139. HEK239A cells were generously provided by Dr. Asuka Inoue, Tohoku University, Japan. HEK293A cells were grown in Dulbecco’s Modified Eagle Medium (ThermoFisher #31966047) supplemented with 10% dialyzed fetal bovine serum and 100 units/mL Penicillin-Streptomycin. Cell lines were maintained at 37 °C in humidified incubator equilibrated with 5% CO2.
HTRF IP-One Gq kit (Cisbio #62IPAPEC) was used to detect the accumulation of inositol monophosphate (IP1) as described in the work by Shehata et al.[26]. GPR139-CHOk1 cells were dissociated and resuspended in HEPES buffer. 50,000 cells in 5 µL and 5 µL test compounds diluted from DMSO stocks (final DMSO concentration of maximally 0.3%) in HEPES buffer supplemented with 40 mM LiCl were mixed in each well of white 384-well OptiPlate (PerkinElmer #6007290). The cells were incubated for 1 h at 37 °C. Then, 10 µL detection reagent composed of 2.5% Eu3 + -anti-IP1 antibody and 2.5% IP1-d2 diluted in lysis buffer was added, and the cells were incubated for 1 h at room temperature before measurements. Measurements were performed on EnVision Multimode Plate Reader (PerkinElmer) using excitation light of 340 nm and emission light of 615 nm and 665 nm. The time resolved-fluorescence resonance energy transfer (TR-FRET) 665 nm/615 nm ratio, which is inversely proportional to the IP1 accumulation, was used to determine the IP1 response.
Pharmacological data and statistical analyses were performed in GraphPad Prism v9–10 (Graphpad Software Inc., San Diego, CA), which are also specifically described in the figure and table legends. The functional assay responses were normalized to buffer (0%) and Lundbeck Cmp 1a or JNJ-63533054 (100%), for Ca^2+ and IP1 experiments in the GPR139-CHOk1 stable cell line or Ca^2+, G protein activation, and arrestin-3 recruitment experiments in the HEK293A cells transiently transfected with GPR139, respectively. Data are from at least three independent experiments, unless stated otherwise. Concentration-response curves were fitted applying non-linear regression using the log (agonist) versus response model with variable slope. ANOVA was applied for comparing results and determining statistical significance. Comparison of responses to the reference was performed using one-way ANOVA with Dunnett’s multiple comparisons test at significance threshold of p < 0.05. Comparison of responses across assays and ligands was performed using two-way ANOVA with Tukey’s multiple comparisons test at a significance threshold of p < 0.05.

[1] = log [Compound] M -4.5, replicate experiments
[2] = log [Compound] M -5.0, replicate experiments
[3] = log [Compound] M -5.5, replicate experiments
[4] = log [Compound] M -6.0, replicate experiments
[5] = log [Compound] M -6.5, replicate experiments
[6] = log [Compound] M -7.0, replicate experiments
[7] = log [Compound] M -7.5, replicate experiments
[8] = log [Compound] M -8.0, replicate experiments

EC50 [µM] | SMILES | EC50 (Supplementary Table 2, mean ± SEM) [µM] | IP1 response (% of Cmp 1a) [1] | IP1 response (% of Cmp 1a) [2] | IP1 response (% of Cmp 1a) [3] | IP1 response (% of Cmp 1a) [4] | IP1 response (% of Cmp 1a) [5] | IP1 response (% of Cmp 1a) [6] | IP1 response (% of Cmp 1a) [7] | IP1 response (% of Cmp 1a) [8] | IP1 response (% of Cmp 1a) (log [compound] M -4.5, individual replicates) | IP1 response (% of Cmp 1a) (log [compound] M -5.0, individual replicates) | IP1 response (% of Cmp 1a) (log [compound] M -5.5, individual replicates) | IP1 response (% of Cmp 1a) (log [compound] M -6.0, individual replicates) | IP1 response (% of Cmp 1a) (log [compound] M -6.5, individual replicates) | IP1 response (% of Cmp 1a) (log [compound] M -7.0, individual replicates) | IP1 response (% of Cmp 1a) (log [compound] M -7.5, individual replicates) | IP1 response (% of Cmp 1a) (log [compound] M -8.0, individual replicates) | Emax (read-out: Emax (%) IP1) [%]
– | COc1cc(OC)cc(C(=O)NNC(=O)Nc2cccc3ccccc23)c1 [Lundbeck Cmp 1a, reference compound] | 0.501 | 68 % of Cmp 1a and 118 % of Cmp 1a and 94 % of Cmp 1a and 117 % of Cmp 1a and 98 % of Cmp 1a and 86 % of Cmp 1a and 109 % of Cmp 1a | 78 % of Cmp 1a and 115 % of Cmp 1a and 96 % of Cmp 1a and 112 % of Cmp 1a and 133 % of Cmp 1a and 94 % of Cmp 1a and 86 % of Cmp 1a and 118 % of Cmp 1a | 88 % of Cmp 1a and 100 % of Cmp 1a and 81 % of Cmp 1a and 120 % of Cmp 1a and 61 % of Cmp 1a and 70 % of Cmp 1a and 104 % of Cmp 1a | 58 % of Cmp 1a and 80 % of Cmp 1a and 57 % of Cmp 1a and 63 % of Cmp 1a and 85 % of Cmp 1a and 49 % of Cmp 1a and 68 % of Cmp 1a and 66 % of Cmp 1a | 29 % of Cmp 1a and 32 % of Cmp 1a and 26 % of Cmp 1a and 50 % of Cmp 1a and 44 % of Cmp 1a and 31 % of Cmp 1a and 21 % of Cmp 1a | 7.48 % of Cmp 1a and 13 % of Cmp 1a and 2.79 % of Cmp 1a and 11 % of Cmp 1a and 21 % of Cmp 1a and 9 % of Cmp 1a and 3.75 % of Cmp 1a and 17 % of Cmp 1a | 6 % of Cmp 1a and 4.58 % of Cmp 1a and 1.86 % of Cmp 1a and 3 % of Cmp 1a and 16 % of Cmp 1a and 1.22 % of Cmp 1a and 0.482 % of Cmp 1a and 2.32 % of Cmp 1a | 1.17 % of Cmp 1a and 1.86 % of Cmp 1a and 0.194 % of Cmp 1a and 1 % of Cmp 1a and 1.43 % of Cmp 1a and -8 % of Cmp 1a and -2.66 % of Cmp 1a and -4 % of Cmp 1a | 98 % of Cmp 1a and 68 % of Cmp 1a and 86 % of Cmp 1a and 109 % of Cmp 1a | 133 % of Cmp 1a and 94 % of Cmp 1a and 86 % of Cmp 1a and 118 % of Cmp 1a | 120 % of Cmp 1a and 61 % of Cmp 1a and 70 % of Cmp 1a and 104 % of Cmp 1a | 85 % of Cmp 1a and 49 % of Cmp 1a and 68 % of Cmp 1a and 66 % of Cmp 1a | 50 % of Cmp 1a and 44 % of Cmp 1a and 31 % of Cmp 1a and 21 % of Cmp 1a | 21 % of Cmp 1a and 9 % of Cmp 1a and 3.75 % of Cmp 1a and 17 % of Cmp 1a | 16 % of Cmp 1a and 1.22 % of Cmp 1a and 0.482 % of Cmp 1a and 2.32 % of Cmp 1a | 1.43 % of Cmp 1a and -8 % of Cmp 1a and -2.66 % of Cmp 1a and -4 % of Cmp 1a | 101 ± 12
25.1 | CC(NC(=O)Cn1cncc(-c2ccccc2)c1=O)c1ccccc1 (stereo not drawn) [Compound 5, C[C@@H](NC(=O)CN1C=NC=C(C=2C=CC=CC2)C1=O)C=3C=CC=CC3] | – | 68 % of Cmp 1a and 53 % of Cmp 1a and 56 % of Cmp 1a | 33 % of Cmp 1a and 17 % of Cmp 1a and 31 % of Cmp 1a | 13 % of Cmp 1a (2×) and 9 % of Cmp 1a | 7 % of Cmp 1a and -0.0762 % of Cmp 1a and 3.67 % of Cmp 1a | -1.74 % of Cmp 1a and -4 % of Cmp 1a and 0.455 % of Cmp 1a | 2.62 % of Cmp 1a and -1.59 % of Cmp 1a and -2.51 % of Cmp 1a | 0.67 % of Cmp 1a and -2.55 % of Cmp 1a and -3 % of Cmp 1a | -0.409 % of Cmp 1a and -3 % of Cmp 1a and -0.447 % of Cmp 1a | – | – | – | – | – | – | – | – | –
50.1 | Cc1noc(C(C)NC(=O)Nc2cccc(-c3ccccc3)c2)n1 (stereo not drawn) [Compound 3, CC(NC(=O)NC=1C=CC=C(C1)C=2C=CC=CC2)C3=NC(C)=NO3] | – | 41 % of Cmp 1a and 46 % of Cmp 1a and 42 % of Cmp 1a | 22 % of Cmp 1a and 29 % of Cmp 1a and 28 % of Cmp 1a | 8 % of Cmp 1a and 12 % of Cmp 1a and 10 % of Cmp 1a | 0.417 % of Cmp 1a and 2.14 % of Cmp 1a and 6 % of Cmp 1a | -2.63 % of Cmp 1a and 1.42 % of Cmp 1a and -1.19 % of Cmp 1a | -0.0724 % of Cmp 1a and 2 % of Cmp 1a and 0.325 % of Cmp 1a | -1.11 % of Cmp 1a and -1.52 % of Cmp 1a and 2 % of Cmp 1a | -0.434 % of Cmp 1a and 0.295 % of Cmp 1a and 1.29 % of Cmp 1a | – | – | – | – | – | – | – | – | –
